Source: paper PMC9572521, “Synthesis, Docking Studies and Pharmacological Evaluation of Serotoninergic Ligands Containing a 5-Norbornene-2-Carboxamide Nucleus” (Molecules, 2022)
“Also recorded” adds a separate entry of the source.

Tests used:
[1] = target: T1, 5-HT1A receptor (Rattus norvegicus, UniProt P19327); assay: Functional 5-HT1A receptor [35S]GTPγS assay (agonist mode); type: biochemical; details: [35S]GTPγS, rat hippocampus homogenate;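 note: male Sprague-Dawley rat hippocampal membranes incubated 90 min at 37 °C, bound label counted by scintillation after filtration, non-specific binding defined with 100 µM unlabeled GTPγS, one-site curve fit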
T1 construct: 15 μg/mL of hippocampus homogenate was incubated in triplicate with 0.8 nM; from tissue; host or cells: rat hippocampus homogenate
T1 sequence (P19327 1-422): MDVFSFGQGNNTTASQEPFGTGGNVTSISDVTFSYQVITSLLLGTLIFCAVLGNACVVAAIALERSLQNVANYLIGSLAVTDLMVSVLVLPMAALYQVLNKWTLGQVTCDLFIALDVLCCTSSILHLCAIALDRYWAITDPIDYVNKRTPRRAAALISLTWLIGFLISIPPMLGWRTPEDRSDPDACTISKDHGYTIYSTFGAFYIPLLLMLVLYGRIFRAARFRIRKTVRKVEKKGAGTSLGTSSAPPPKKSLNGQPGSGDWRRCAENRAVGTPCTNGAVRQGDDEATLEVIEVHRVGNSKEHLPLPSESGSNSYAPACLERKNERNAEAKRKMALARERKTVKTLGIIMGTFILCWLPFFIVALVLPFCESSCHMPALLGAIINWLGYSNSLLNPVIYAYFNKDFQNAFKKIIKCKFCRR

[2] = tested on: mice; assay: Elevated plus-maze test (EPM); type: in vivo, mouse; details: 60 min before the test
Experimental: The experiments were carried out, in the Experimental Medicine Center of Medical University of Lublin, on six-week-old naive male Swiss mice, weighing 24–30 g. The mice were housed in cages, five individuals per cage in an environmentally controlled rooms (ambient temperature 22 ± 1 °C; relative humidity 50–60%; 12 h light/dark cycle, lights on at 8:00). Standard laboratory food(LSM-Agropol-Motycz, Lublin, Poland) and filtered water were available ad libitum. All the experimental procedures were carried out, according to the National Institute of Health Guidelines for the Care and Use of Laboratory Animals and to the European Community Council Directive for the Care and Use of Laboratory Animals of 22 September 2010 (2010/63/EU) and approved by the Local Ethics Committee for Animal Experimentation in Lublin. The investigated compounds (Norbo-4, Norbo-8, Norbo-10, Norbo-14, Norbo-18 and Norbo-20) in all tests were administered intraperitoneally (i.p.), dissolved in dimethyl sulfoxide (DMSO, final concentration of 0.1%) and then diluted by aqueous solution of 0.5% methylcellulose (tylose) and injected 60 min before the tests. […] All compounds were given in a volume of 10 mL/kg to mice. The control animals received an equivalent volume of the solvent at the respective time before the tests. All the experiments were conducted in the light phase between 09.00 a.m. and 14.00 p.m. The experiments were performed by an observer unaware of the treatment administered. The EPM studies were carried out on mice according to the method of Lister. The EPM apparatus was made of plexiglass and consisted of two open (30 × 5 cm) and two enclosed (30 × 5 × 15 cm) arms. The arms extended from a central platform of 5 × 5 cm. The apparatus was mounted on a plexiglass base, raising it 38.5 cm above the floor, and illuminated by a red light. The test consisted of placing a mouse in the center of the apparatus (facing an open arm) and allowing it to freely explore. The number of entries into the open arms and the time spent in these arms were scored for a 5 min test period. An entry was defined as placing all four paws within the boundaries of the arm. The following measures were obtained from the test: the total number of arm entries; the percentage of arm entries into the open arms; and the time spent in the open arms expressed as a percentage of the time spent in both the open and closed arms. Anxiolytic activity was indicated by increases in the time spent in open arms and in the number of open arm entries. The total number of entries into either type of arm was used additionally as a measure of overall motor activity.

For Cc1cccc(N2CCN(CCCNC(=O)C3CC4C=CC3C4)CC2)c1C (stereo not drawn) [Norbo-4, endo-N-(3-(4-(2,3-dimethylphenyl)piperazin-1-yl)propyl)bicyclo[2.2.1]hept-5-ene-2-carboxamide], the “5-HT1A Receptor G-Protein Stimulation Emax (%) ± SEM” value [1] was 181 ± 2.4 %, the EC50 ([1]; read-out: 5-HT1A Receptor G-Protein Stimulation EC50 (95% CI)) was 181 nM and the “percentage of time spent in open arms (EPM)” value ([2]; 3.75 mg/kg i.p.) was “significant increase in time spent in open arms; also recorded: increased the percentage of open arm exploration time”. The “percentage of the open arm entries (EPM)” value ([2]; 15 mg/kg i.p.) was “increase the percentage of open arm entries” and the “percentage of time spent in open arms (EPM)” value ([2]; 15 mg/kg i.p.) was “significant increase in time spent in open arms; also recorded: increased the percentage of open arm exploration time”.
